# Experiment: pH of Oxonia Active after addition of the additive
# Assay type: physicochemical
# Conditions: for effect of the additive on the product's pH: Oxonia Active; for pH: additive dissolved in Oxonia Active
# Experimental: The ability to remove odor from a concentrated peracetic acid product was evaluated. Oxonia Active is a concentrated peracetic acid product available from Ecolab, Inc. (St. Paul, Minn.). The commercial product has about 6% peracetic acid and 22% hydrogen peroxide.
# Urea was dissolved into the Oxonia Active at various molar ratios to the peracetic acid level and the resulting effect on the product's odor was observed.
pH (molar POAA/additive 1/0.25),Molecule,effect of the additive on the product's pH,pH (molar POAA/additive 0.5/1),pH (molar POAA/additive 1/0.50),pH (molar POAA/additive 1/1)
1.10,NC(N)=O [Urea],did not significantly change,1.38,1.10,1.16
–,Ammonium carbonate,raised the pH,7.00,3.64,5.90
